Source: patent publication US9334246B2, “Substituted triazines for malaria treatment and chemoprophylaxis” (The United States of America, as represented by the …, priority 2013, dated 2016)
≈ marks a conversion by molar mass, not a printed value.

How the values were obtained:
Assay type in all cases: cell-based, Plasmodium falciparum
P. falciparum D6 = assay: Malaria SYBR Green Fluorescence Assay, D6 strain
P. falciparum C235 = assay: Malaria SYBR Green Fluorescence Assay, C235 strain
P. falciparum W2 = assay: Malaria SYBR Green Fluorescence Assay, W2 strain
[1] = Plasmodium falciparum, SYBR Green Assay

Compound NC1(CNc2nc(-c3ccc(Cl)cc3)nc(C(Cl)(Cl)Cl)n2)CC1 [Compound 678, NC1(CNC2═NC(═NC(═N2)C2═CC═C(Cl)C═C2)C(Cl)(Cl)Cl)CC1] has a D6 (P. falciparum D6; SYBR Green Assay) of 11 ng/mL, a C235 (P. falciparum C235; SYBR Green Assay) of 20 ng/mL and a W2 (P. falciparum W2; SYBR Green Assay) of 12 ng/mL.

CCN1CCCC(Nc2nc(Nc3ccc(OC)nc3)nc(C(Cl)(Cl)Cl)n2)C1 (stereo not drawn) [Cmpd 344] showed a D6 (P. falciparum D6; SYBR Green Assay) of 80 ng/mL, a C235 (P. falciparum C235; SYBR Green Assay) of 98 ng/mL and a W2 (P. falciparum W2; SYBR Green Assay) of 34 ng/mL.

COc1ccc(-c2nc(N3CCCNCC3)nc(C(Cl)(Cl)Cl)n2)c2ccccc12 [Cmpd 281] showed a D6 (P. falciparum D6; SYBR Green Assay) of 148 ng/mL, a C235 (P. falciparum C235; SYBR Green Assay) of 205 ng/mL and a W2 (P. falciparum W2; SYBR Green Assay) of 66 ng/mL.

With NC1(CNc2nc(-c3ccc(Cl)c(Cl)c3)nc(C(Cl)(Cl)Cl)n2)CCCCC1 [Compound 670, NC1(CNC2═NC(═NC(═N2)C2═CC(Cl)═C(Cl)C═C2)C(Cl)(Cl)Cl)CCCCC1] the D6 (P. falciparum D6; SYBR Green Assay) was 22 ng/mL, the C235 (P. falciparum C235; SYBR Green Assay) was 38 ng/mL and the W2 (P. falciparum W2; SYBR Green Assay) was 20 ng/mL.

With COc1ccc(-c2nc(N3CCC(N)CC3)nc(C(Cl)(Cl)Cl)n2)c2ccccc12 [Compound 620, COC1═CC═C(C2═NC(═NC(═N2)C(Cl)(Cl)Cl)N2CCC(N)CC2)C2═C1C═CC═C2] the “D6 (SYBR Green Assay IC50)” value (P. falciparum D6) was 0.431 µg/mL, the “C235 (SYBR Green Assay IC50)” value (P. falciparum C235) was 0.409 µg/mL and the “W2 (SYBR Green Assay IC50)” value (P. falciparum W2) was 0.175 µg/mL.

For NC1CCN(c2nc(-c3ccc(F)cc3)nc(C(Cl)(Cl)Cl)n2)CC1 [Example 2, 1-(4-(4-fluorophenyl)-6-(trichloromethyl)-1,3,5-triazin-2-yl)piperidin-4-amine], the IC50 (P. falciparum D6; [1]) was 0.137 µg/mL (≈ 0.351 µM), the IC50 (P. falciparum C235; [1]) was 0.15 µg/mL (≈ 0.384 µM) and the IC50 (P. falciparum W2; [1]) was 0.078 µg/mL (≈ 0.2 µM).

With CN1CCCN(c2nc(-c3ccc(F)cc3)nc(C(Cl)(Cl)Cl)n2)CC1 [Cmpd 384] the “D6 (SYBR Green Assay IC50)” value (P. falciparum D6) was 0.025 µg/mL, the “C235 (SYBR Green Assay IC50)” value (P. falciparum C235) was 0.059 µg/mL and the “W2 (SYBR Green Assay IC50)” value (P. falciparum W2) was 0.029 µg/mL.

In the case of CC(C)N1CCC(CNc2nc(-c3ccc(Cl)cc3)nc(C(Cl)(Cl)Cl)n2)CC1 [Cmpd 487], the “D6 (SYBR Green Assay IC50)” value (P. falciparum D6) is reported as 0.064 µg/mL, the “C235 (SYBR Green Assay IC50)” value (P. falciparum C235) is reported as 0.033 µg/mL and the “W2 (SYBR Green Assay IC50)” value (P. falciparum W2) is reported as 0.019 µg/mL.

“CC(C)CN1CCC(CC1)NC1═NC(═NC(═N1)C1═CC═C(C═C1)C1═CC═CC═C1)C(Cl)(Cl)Cl [Compound 699]” showed a D6 (P. falciparum D6; SYBR Green Assay) of 564 ng/mL, a C235 (P. falciparum C235; SYBR Green Assay) of 746 ng/mL and a W2 (P. falciparum W2; SYBR Green Assay) of 430 ng/mL.

CCN1CCC(CNc2nc(-c3ccccc3-c3ccc(C)cc3)nc(C(Cl)(Cl)Cl)n2)CC1 [Cmpd 259] showed a D6 (P. falciparum D6; SYBR Green Assay) of 162 ng/mL, a C235 (P. falciparum C235; SYBR Green Assay) of 113 ng/mL and a W2 (P. falciparum W2; SYBR Green Assay) of 105 ng/mL.

CN(C)CCCNc1nc(-c2ccc(F)cc2)nc(C(Cl)(Cl)Cl)n1 [Cmpd 448] was tested, and the “D6 (SYBR Green Assay IC50)” value (P. falciparum D6) was 0.035 µg/mL, the “C235 (SYBR Green Assay IC50)” value (P. falciparum C235) was 0.04 µg/mL and the “W2 (SYBR Green Assay IC50)” value (P. falciparum W2) was 0.007 µg/mL.

CN1CCC(CNc2nc(-c3cccc(C(F)(F)F)c3)nc(C(Cl)(Cl)Cl)n2)CC1 [Cmpd 508] was tested, and the “D6 (SYBR Green Assay IC50)” value (P. falciparum D6) was 0.034 µg/mL, the “C235 (SYBR Green Assay IC50)” value (P. falciparum C235) was 0.022 µg/mL and the “W2 (SYBR Green Assay IC50)” value (P. falciparum W2) was 0.013 µg/mL.

With COc1ccc(-c2nc(NCC(C)(C)N)nc(C(Cl)(Cl)Cl)n2)cc1OC [Cmpd 396] the “D6 (SYBR Green Assay IC50)” value (P. falciparum D6) was 0.086 µg/mL, the “C235 (SYBR Green Assay IC50)” value (P. falciparum C235) was 0.117 µg/mL and the “W2 (SYBR Green Assay IC50)” value (P. falciparum W2) was 0.049 µg/mL.

CCN1CCC(CNc2nc(-c3ccc(OC)c4ccccc34)nc(C(Cl)(Cl)Cl)n2)CC1 [Cmpd 279] gave a D6 (P. falciparum D6; SYBR Green Assay) of 66 ng/mL, a C235 (P. falciparum C235; SYBR Green Assay) of 77 ng/mL and a W2 (P. falciparum W2; SYBR Green Assay) of 20 ng/mL.

With NC1CCN(c2nc(-c3ccccc3[N+](=O)[O-])nc(C(Cl)(Cl)Cl)n2)CC1 [Compound 632, NC1CCN(CC1)C1═NC(═NC(═N1)C(Cl)(Cl)Cl)C1═C(C═CC═C1)[N+]([O−])═O] the “D6 (SYBR Green Assay IC50)” value (P. falciparum D6) was 0.064 µg/mL, the “C235 (SYBR Green Assay IC50)” value (P. falciparum C235) was 0.058 µg/mL and the “W2 (SYBR Green Assay IC50)” value (P. falciparum W2) was 0.04 µg/mL.

O=[N+]([O-])c1ccccc1-c1nc(N2CCCN(CCO)CC2)nc(C(Cl)(Cl)Cl)n1 [Cmpd 552] was tested, and the “D6 (SYBR Green Assay IC50)” value (P. falciparum D6) was 0.1704 µg/mL, the “C235 (SYBR Green Assay IC50)” value (P. falciparum C235) was 0.1756 µg/mL and the “W2 (SYBR Green Assay IC50)” value (P. falciparum W2) was 0.07605 µg/mL.

For COc1ccc(-c2nc(N3CCCN(C)CC3)nc(C(Cl)(Cl)Cl)n2)cc1 [Cmpd 111], the D6 (P. falciparum D6; SYBR Green Assay) was 191 ng/mL, the C235 (P. falciparum C235; SYBR Green Assay) was 232 ng/mL and the W2 (P. falciparum W2; SYBR Green Assay) was 103 ng/mL.

In the case of CSc1ccc(-c2nc(NCCCN3CCCC3)nc(C(Cl)(Cl)Cl)n2)cc1 [Cmpd 44], the D6 (P. falciparum D6; SYBR Green Assay) is reported as 462 ng/mL, the C235 (P. falciparum C235; SYBR Green Assay) is reported as 638 ng/mL and the W2 (P. falciparum W2; SYBR Green Assay) is reported as 204 ng/mL.

In the case of CC(=O)Nc1cccc(Nc2nc(-c3ccc(S(C)(=O)=O)cc3)nc(C(Cl)(Cl)Cl)n2)c1 [Compound 691, CC(═O)Nc1cccc(Nc2nc(nc(n2)C(Cl)(Cl)Cl)c3ccc(cc3)S(═O)(═O)C)c1], the D6 (P. falciparum D6; SYBR Green Assay) is reported as 341 ng/mL, the C235 (P. falciparum C235; SYBR Green Assay) is reported as 705 ng/mL and the W2 (P. falciparum W2; SYBR Green Assay) is reported as 256 ng/mL.

Work on CC(C)(N)CNc1nc(Nc2ccc(OC(F)(F)F)cc2)nc(C(Cl)(Cl)Cl)n1 [Cmpd 296] yielded a D6 (P. falciparum D6; SYBR Green Assay) of 302 ng/mL, a C235 (P. falciparum C235; SYBR Green Assay) of 460 ng/mL and a W2 (P. falciparum W2; SYBR Green Assay) of 318 ng/mL.

COc1cc(OC)cc(-c2nc(NCCN3CCCC3)nc(C(Cl)(Cl)Cl)n2)c1 [Cmpd 476] was tested, and the “D6 (SYBR Green Assay IC50)” value (P. falciparum D6) was 0.057 µg/mL, the “C235 (SYBR Green Assay IC50)” value (P. falciparum C235) was 0.035 µg/mL and the “W2 (SYBR Green Assay IC50)” value (P. falciparum W2) was 0.023 µg/mL.

“CCN1CCCC(C1)NC1═NC(NC2═CC═C(OC(F)(F)F)C═C2)═NC(═N1)C(Cl)(Cl)Cl [Compound 655]” showed a D6 (P. falciparum D6; SYBR Green Assay) of 19 ng/mL, a C235 (P. falciparum C235; SYBR Green Assay) of 28 ng/mL and a W2 (P. falciparum W2; SYBR Green Assay) of 11 ng/mL.

CS(=O)(=O)c1ccc(-c2nc(NCCc3ccncc3)nc(C(Cl)(Cl)Cl)n2)cc1 [Cmpd 178] showed a D6 (P. falciparum D6; SYBR Green Assay) of 392 ng/mL, a C235 (P. falciparum C235; SYBR Green Assay) of 518 ng/mL and a W2 (P. falciparum W2; SYBR Green Assay) of 162 ng/mL.

For “COC1═C(OC)C═C(C═C1)C1═NC(NC2CCN(CC(C)C)CC2)═NC(═N1)C(Cl)(Cl)Cl [Compound 702]”, the D6 (P. falciparum D6; SYBR Green Assay) was 435 ng/mL, the C235 (P. falciparum C235; SYBR Green Assay) was 480 ng/mL and the W2 (P. falciparum W2; SYBR Green Assay) was 179 ng/mL.

In the case of CN1CCC(CNc2nc(-c3ccc(Cl)c(Cl)c3)nc(C(Cl)(Cl)Cl)n2)CC1 [Cmpd 505], the “D6 (SYBR Green Assay IC50)” value (P. falciparum D6) is reported as 0.029 µg/mL, the “C235 (SYBR Green Assay IC50)” value (P. falciparum C235) is reported as 0.02 µg/mL and the “W2 (SYBR Green Assay IC50)” value (P. falciparum W2) is reported as 0.017 µg/mL.

In the case of COc1ccc(-c2nc(NCC3CCN(C)CC3)nc(C(Cl)(Cl)Cl)n2)cc1OC [Cmpd 520], the “D6 (SYBR Green Assay IC50)” value (P. falciparum D6) is reported as 0.082 µg/mL, the “C235 (SYBR Green Assay IC50)” value (P. falciparum C235) is reported as 0.045 µg/mL and the “W2 (SYBR Green Assay IC50)” value (P. falciparum W2) is reported as 0.019 µg/mL.

For CS(=O)(=O)c1ccc(-c2nc(N3CCC(N)CC3)nc(C(Cl)(Cl)Cl)n2)cc1 [Compound 627, CS(═O)(═O)C1═CC═C(C═C1)C1═NC(═NC(═N1)C(Cl)(Cl)Cl)N1CCC(N)CC1], the “D6 (SYBR Green Assay IC50)” value (P. falciparum D6) was 0.085 µg/mL, the “C235 (SYBR Green Assay IC50)” value (P. falciparum C235) was 0.048 µg/mL and the “W2 (SYBR Green Assay IC50)” value (P. falciparum W2) was 0.025 µg/mL.

ClC(Cl)(Cl)c1nc(NCCc2ccccn2)nc(-c2ccccc2)n1 [Cmpd 188] gave a D6 (P. falciparum D6; SYBR Green Assay) of 176 ng/mL, a C235 (P. falciparum C235; SYBR Green Assay) of 197 ng/mL and a W2 (P. falciparum W2; SYBR Green Assay) of 42 ng/mL.

With CN1CCC(CNc2nc(-c3ccc(S(C)(=O)=O)cc3)nc(C(Cl)(Cl)Cl)n2)CC1 [Cmpd 510] the “D6 (SYBR Green Assay IC50)” value (P. falciparum D6) was 0.416 µg/mL, the “C235 (SYBR Green Assay IC50)” value (P. falciparum C235) was 0.273 µg/mL and the “W2 (SYBR Green Assay IC50)” value (P. falciparum W2) was 0.088 µg/mL.

For OCCN1CCCN(c2nc(-c3ccc4ccccc4c3)nc(C(Cl)(Cl)Cl)n2)CC1 [Cmpd 459], the “D6 (SYBR Green Assay IC50)” value (P. falciparum D6) was 0.163 µg/mL, the “C235 (SYBR Green Assay IC50)” value (P. falciparum C235) was 0.153 µg/mL and the “W2 (SYBR Green Assay IC50)” value (P. falciparum W2) was 0.108 µg/mL.

With CN(C)CCCNc1nc(-c2ccc(Cl)cc2)nc(C(Cl)(Cl)Cl)n1 [Cmpd 560] the “D6 (SYBR Green Assay IC50)” value (P. falciparum D6) was 0.02 µg/mL, the “C235 (SYBR Green Assay IC50)” value (P. falciparum C235) was 0.018 µg/mL and the “W2 (SYBR Green Assay IC50)” value (P. falciparum W2) was 0.009 µg/mL.

CN1CCC(CNc2nc(-c3ccc(C(C)(C)C)cc3)nc(C(Cl)(Cl)Cl)n2)CC1 [Cmpd 507] was tested, and the “D6 (SYBR Green Assay IC50)” value (P. falciparum D6) was 0.043 µg/mL, the “C235 (SYBR Green Assay IC50)” value (P. falciparum C235) was 0.043 µg/mL and the “W2 (SYBR Green Assay IC50)” value (P. falciparum W2) was 0.039 µg/mL.
